Measurements published in patent US20020022022A1, “Inhibition of cell proliferation and matrix synthesis by antioxidants and NAD(P)H oxidase inhibitors” (priority 2000, published 2002).

Assays:
[1] = system: superoxide anion (—O2^−) generation in coronary adventitia; test: —O2^− production in uninjured coronary adventitia (SOD-inhibitable NBT reduction); type: cell-based, pigs; details: uninjured coronary adventitia; DETCA 10 mM
Description: (§1) The production of —O2^− is measured by superoxide dismutase- (SOD) or tiron-inhibitable conversion of nitroblue tetrazolium (NBT) to formazan. (20,21)
(§2) —O2^− production in coronary arteries: Coronary arteries are dissected free from adipose tissue and myocardium and then cut into ˜5 mm rings and placed in 24-well plates. Tissues are balanced in phenol-free DMEM at 37° C. in a CO2 incubator for 30 minutes with or without addition of SOD (SOD, 1000 unit/ml) or tiron (10 mM), both scavengers of —O2^− Freshly made NBT (100 mg/L in phenol-free DMEM) is added to the tissues with a gentle rocking for 3 hours. The reaction is terminated by addition of equal volume of 0.5N HCl, and tissues are rinsed twice with cold PBS. To extract formazan, tissues are pulverized in liquid nitrogen and dissolved in 100% pyridine at 80° C. for 30 minutes. After centrifugation, light absorbance is read in supernatants at 540 nm. The NBT reduction to formazan is calculated using the following formula: NBT reduction=A×V/(T×E×L) (A: absorbance; V: volume of solubilizing solution; T: time of incubation with NBT (minutes); E: extinction coefficient=0.72 mmol.mm; L: length of light travel through the solution, 10 mm). Either SOD- or tiron-inhibitable NBT reduction is calculated as measures of —O2^− production (pmol/min/mg wet weight). To determine the pathways mediating —O2^− production, several inhibitors are used in the experiments, including diphenyleneiodonium (DPI, 100 μM), rotenone (ROT, 50 μM), oxypurinol (OXY, 300 μM), N^ω-nitro-L-arginine methyl ester (L-NAME, 1 mM), and diethyldithio-carbamic acid (DETCA, 10 mM). The n value represents the number of vascular rings obtained from at least 3 animals per experimental condition.

[2] = system: superoxide anion (—O2^−) generation in coronary media; test: —O2^− production in uninjured coronary media (SOD-inhibitable NBT reduction); type: cell-based, pigs; details: DETCA 10 mM
Description: as §1
as §2, with “To determine the pathways mediating —O2^− production, several inhibitors are used in the experiments, including diphenyleneiodonium (DPI, 100 μM), rotenone (ROT, 50 μM), oxypurinol (OXY, 300 μM), N^ω-nitro-L-arginine methyl ester (L-NAME, 1 mM), and diethyldithio-carbamic acid (DETCA, 10 mM). The n value represents the number of vascular rings obtained from at least 3 animals per experimental condition.” left out

Q: Which “—O2^− generation in adventitia with SOD inhibitor” value [1] does the source give for CCN(CC)C(=S)S [DETCA, diethyldithio-carbamic acid] here?
A: 19.6 ± 2.5 pmol/mg/min

Q: What about the “—O2^− generation in media with SOD inhibitor” value [2] of the same compound?
A: 36.3 ± 8.2 pmol/mg/min
